Source: patent publication US12054487B2, “Muscarinic acetylcholine M1 receptor antagonists” (Contineum Therapeutics, Inc., priority 2018, dated 2024)

Key:
Format in all cases: cell-based
human M1 receptor = target: T1, human M1 receptor (Homo sapiens, UniProt P11229); experiment: In vitro functional assay of muscarinic acetylcholine receptor activity (aequorin calcium flux, antagonist mode vs EC80 acetylcholine), M1; conditions: CHO-K1 cells stably expressing human M1 receptor with Aequorin; decrease in EC80 acetylcholine response
T1 construct: host or cells: CHO-K1
T1 sequence (P11229 1-460): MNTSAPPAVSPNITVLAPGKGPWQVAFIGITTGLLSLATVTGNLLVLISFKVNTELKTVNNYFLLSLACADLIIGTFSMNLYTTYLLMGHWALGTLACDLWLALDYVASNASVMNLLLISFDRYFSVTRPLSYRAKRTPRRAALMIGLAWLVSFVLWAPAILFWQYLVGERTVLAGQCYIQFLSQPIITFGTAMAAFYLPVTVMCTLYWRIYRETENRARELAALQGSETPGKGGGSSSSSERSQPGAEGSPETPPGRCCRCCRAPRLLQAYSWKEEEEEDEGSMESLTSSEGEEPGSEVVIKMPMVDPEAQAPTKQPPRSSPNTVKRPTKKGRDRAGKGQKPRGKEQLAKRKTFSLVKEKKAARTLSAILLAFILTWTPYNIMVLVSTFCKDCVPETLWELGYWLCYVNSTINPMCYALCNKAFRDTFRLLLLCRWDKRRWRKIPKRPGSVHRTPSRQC
Method in brief: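 Antagonism at M1 was measured as a concentration-dependent reduction of the EC80 acetylcholine-evoked aequorin luminescence, from which IC50 was derived. Human M1 CHO-K1 aequorin cells were first loaded with 5 uM coelenterazine h for 4 h and exposed to compound for 30 min at room temperature.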

M2 = target: T2, M2 (Homo sapiens, UniProt P08172); experiment: In vitro functional assay of muscarinic acetylcholine receptor activity, M2; conditions: antagonist activity; M2 method not separately described
T2 sequence (P08172 1-466): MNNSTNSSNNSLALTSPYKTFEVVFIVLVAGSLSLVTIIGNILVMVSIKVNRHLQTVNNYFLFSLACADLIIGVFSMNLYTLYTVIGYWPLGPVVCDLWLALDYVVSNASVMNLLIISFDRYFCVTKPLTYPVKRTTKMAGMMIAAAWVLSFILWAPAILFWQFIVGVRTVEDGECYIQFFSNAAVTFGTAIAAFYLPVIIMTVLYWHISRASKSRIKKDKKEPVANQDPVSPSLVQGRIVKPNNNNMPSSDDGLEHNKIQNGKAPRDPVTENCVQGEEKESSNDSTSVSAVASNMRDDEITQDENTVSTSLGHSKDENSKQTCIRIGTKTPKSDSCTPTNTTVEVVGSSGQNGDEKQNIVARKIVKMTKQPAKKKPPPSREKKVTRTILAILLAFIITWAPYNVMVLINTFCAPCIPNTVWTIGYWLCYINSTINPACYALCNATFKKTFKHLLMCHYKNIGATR

M3 = M3 (Homo sapiens, UniProt P20309); experiment: In vitro functional assay of muscarinic acetylcholine receptor activity, M3; conditions: antagonist activity; M3 method not separately described
Sequence of M3 (P20309 whole entry): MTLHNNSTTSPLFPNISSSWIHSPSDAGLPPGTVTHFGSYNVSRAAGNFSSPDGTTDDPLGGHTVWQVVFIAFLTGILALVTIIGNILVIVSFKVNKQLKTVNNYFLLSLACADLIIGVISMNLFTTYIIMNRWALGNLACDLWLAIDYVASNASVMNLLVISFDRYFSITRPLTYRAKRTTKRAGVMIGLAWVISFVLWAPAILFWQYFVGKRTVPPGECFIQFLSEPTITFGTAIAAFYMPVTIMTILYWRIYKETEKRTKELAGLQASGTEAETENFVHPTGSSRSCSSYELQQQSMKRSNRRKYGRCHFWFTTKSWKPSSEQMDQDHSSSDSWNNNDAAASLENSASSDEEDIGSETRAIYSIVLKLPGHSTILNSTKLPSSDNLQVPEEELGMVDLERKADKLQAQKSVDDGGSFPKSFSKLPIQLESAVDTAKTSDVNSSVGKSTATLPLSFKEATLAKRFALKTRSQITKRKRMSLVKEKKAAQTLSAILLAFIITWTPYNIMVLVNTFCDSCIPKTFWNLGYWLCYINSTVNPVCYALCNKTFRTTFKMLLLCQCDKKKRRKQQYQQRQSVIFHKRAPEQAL

IC50 (human M1 receptor) [µM]	IC50 (M2) [µM]	IC50 (M3) [µM]	SMILES
0.1 to 1	> 10	> 10	O=C1[C@@H](CCCc2cccn3ncnc23)C[C@H]2CN(c3ncccn3)CCN12 [Example 66, (7S,8aS)-7-(3-([1,2,4]triazolo[1,5-a]pyridin-8-yl)propyl)-2-(pyrimidin-2-yl)hexahydropyrrolo[1,2-a]pyrazin-6(2H)-one]
< 0.1	0.1 to 1	< 0.1	N#Cc1ccc(N2CCN3C(=O)[C@@H](CCCc4cccn5ncnc45)C[C@H]3C2)cn1 [Example 67, 5-((7S,8aS)-7-(3-([1,2,4]triazolo[1,5-a]pyridin-8-yl)propyl)-6-oxohexahydropyrrolo[1,2-a]pyrazin-2(1H)-yl)picolinonitrile]
< 0.1	0.1 to 1	< 0.1	N#Cc1ccc(N2CCN3C(=O)[C@@H](CCCc4cccn5ncnc45)C[C@H]3C2)nc1 [Example 68, 6-((7S,8aS)-7-(3-([1,2,4]triazolo[1,5-a]pyridin-8-yl)propyl)-6-oxohexahydropyrrolo[1,2-a]pyrazin-2(1H)-yl)nicotinonitrile]
1 to 10	1 to 10	> 10	O=C1[C@@H](CCCc2cccn3ncnc23)C[C@H]2CN(c3ccc(F)cc3F)CCN12 [Example 71, (7S,8aS)-7-(3-([1,2,4]triazolo[1,5-a]pyridin-8-yl)propyl)-2-(2,4-difluorophenyl)hexahydropyrrolo[1,2-a]pyrazin-6(2H)-one]
< 0.1	1 to 10	1 to 10	O=C1[C@@H](CCCc2c(F)ccn3ncnc23)C[C@H]2CN(c3ccc(F)cn3)CCN12 [Example 78, (7S,8aS)-7-(3-{7-fluoro-[1,2,4]triazolo[1,5-a]pyridin-8-yl}propyl)-2-(5-fluoropyridin-2-yl)-octahydropyrrolo[1,2-a]pyrazin-6-one]
0.1 to 1	1 to 10	1 to 10	O=C1[C@@H](CCCc2cccn3nccc23)C[C@H]2CN(c3ccc(F)cn3)CCN12 [Example 87, (7S,8aS)-2-(5-fluoropyridin-2-yl)-7-(3-(pyrazolo[1,5-a]pyridin-4-yl)propyl)hexahydropyrrolo[1,2-a]pyrazin-6(2H)-one]
< 0.1	1 to 10	1 to 10	O=C1[C@@H](CCCc2cccn3nccc23)C[C@H]2CN(c3ncc(F)cn3)CCN12 [Example 88, (7S,8aS)-2-(5-fluoropyrimidin-2-yl)-7-(3-(pyrazolo[1,5-a]pyridin-4-yl)propyl)hexahydropyrrolo[1,2-a]pyrazin-6(2H)-one]
< 0.1	1 to 10	1 to 10	O=C1C(CCCc2c(F)ccc3nccn23)C[C@H]2CN(c3ccc(F)cn3)CCN12 (stereo partly drawn) [Example 89, (8aS)-7-(3-(6-fluoroimidazo[1,2-a]pyridin-5-yl)propyl)-2-(5-fluoropyridin-2-yl)hexahydropyrrolo[1,2-a]pyrazin-6(2H)-one]
< 0.1	> 10	1 to 10	O=C1[C@@H](CCCc2cccc3nccnc23)C[C@H]2CN(c3ccc(F)cn3)CCN12 [Example 93, (7S,8aS)-2-(5-fluoropyridin-2-yl)-7-(3-(quinoxalin-5-yl)propyl)hexahydropyrrolo[1,2-a]pyrazin-6(2H)-one]

The remaining lines, values behind:

SMILES	IC50 (human M1 receptor) [µM]	IC50 (M2) [µM]	IC50 (M3) [µM]
N#Cc1ccc(N2CCN3C(=O)[C@@H](CCCc4cccc5ncccc45)C[C@H]3C2)nc1 [Example 59, 6-((7S,8aS)-6-oxo-7-(3-(quinolin-5-yl)propyl)hexahydropyrrolo[1,2-a]pyrazin-2(1H)-yl)nicotinonitrile]	< 0.1	0.1 to 1	1 to 10
N#Cc1ccc(N2CCN3C(=O)[C@@H](CCCc4cccc5nccnc45)C[C@H]3C2)nc1 [Example 60, 6-((7S,8aS)-6-oxo-7-(3-(quinoxalin-5-yl)propyl)hexahydropyrrolo[1,2-a]pyrazin-2(1H)-yl)nicotinonitrile]	< 0.1	< 0.1	0.1 to 1
N#Cc1ccc(N2CCN3C(=O)[C@@H](CCCc4cccc5c4NCCN5)C[C@H]3C2)nc1 [Example 61, 6-((7S,8aS)-6-oxo-7-(3-(1,2,3,4-tetrahydroquinoxalin-5-yl)propyl)hexahydropyrrolo[1,2-a]pyrazin-2(1H)-yl)nicotinonitrile]	0.1 to 1	1 to 10	> 10
O=C1[C@@H](CCCc2cccn3ncnc23)C[C@H]2CN(c3ccc(F)cn3)CCN12 [Example 62, (7S,8aS)-2-(5-fluoropyridin-2-yl)-7-(3-{[1,2,4]triazolo[1,5-a]pyridin-8-yl}propyl)-octahydropyrrolo[1,2-a]pyrazin-6-one]	< 0.1	1 to 10	1 to 10
O=C1[C@@H](CCCc2cccn3ncnc23)C[C@H]2CN(c3ncc(F)cn3)CCN12 [Example 63, (7S,8aS)-7-(3-([1,2,4]triazolo[1,5-a]pyridin-8-yl)propyl)-2-(5-fluoropyrimidin-2-yl)hexahydropyrrolo[1,2-a]pyrazin-6(2H)-one]	< 0.1	> 10	1 to 10
O=C1[C@@H](CCCc2cccn3ncnc23)C[C@H]2CN(c3ncc(Cl)cn3)CCN12 [Example 64, (7S,8aS)-7-(3-([1,2,4]triazolo[1,5-a]pyridin-8-yl)propyl)-2-(5-chloropyrimidin-2-yl)hexahydropyrrolo[1,2-a]pyrazin-6(2H)-one]	< 0.1	0.1 to 1	1 to 10
Cc1cnc(N2CCN3C(=O)[C@@H](CCCc4cccn5ncnc45)C[C@H]3C2)nc1 [Example 65, (7S,8aS)-7-(3-([1,2,4]triazolo[1,5-a]pyridin-8-yl)propyl)-2-(5-methylpyrimidin-2-yl)hexahydropyrrolo[1,2-a]pyrazin-6(2H)-one]	0.1 to 1	1 to 10	> 10
